Data from US20060229299A1, “5ht2c Receptor antagonists in the treatment of schizophrenia” (priority 2003, published 2006).
Like-named read-outs stand apart in the source and are kept apart here.

How the values were obtained:
[1] = system: 5HT2A/2C mediated elevations of prolactin levels; details: known from literature; cited from earlier work
[2] = rhesus monkeys; cited from earlier work
[3] = biological target: D2-L (long form of D2 receptor) (Homo sapiens, UniProt P14416); details: cited from earlier work
D2-L (long form of D2 receptor), sequence (P14416 whole entry): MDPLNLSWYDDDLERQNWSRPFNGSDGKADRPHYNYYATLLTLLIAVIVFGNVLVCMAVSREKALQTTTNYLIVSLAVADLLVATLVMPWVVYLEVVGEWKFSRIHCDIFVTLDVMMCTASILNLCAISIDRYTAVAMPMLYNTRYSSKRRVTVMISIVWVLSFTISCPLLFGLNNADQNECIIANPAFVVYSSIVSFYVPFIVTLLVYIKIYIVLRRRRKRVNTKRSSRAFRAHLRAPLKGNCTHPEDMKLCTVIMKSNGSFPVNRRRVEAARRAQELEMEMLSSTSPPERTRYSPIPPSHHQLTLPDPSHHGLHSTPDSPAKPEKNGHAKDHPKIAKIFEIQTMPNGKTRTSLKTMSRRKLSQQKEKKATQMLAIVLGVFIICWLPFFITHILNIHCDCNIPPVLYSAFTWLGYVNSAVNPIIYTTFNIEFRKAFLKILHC

[4] = system: 5-HT2C receptor relative to 5-HT2A and D2 receptors; assay: Relative 5-HT2C affinity (formula I, sum of 5-HT2C/5-HT2A and 5-HT2C/D2 affinity ratios)
[5] = biological target: α2-adrenoceptor; details: human; cited from earlier work
[6] = biological target: sigma, σ receptor; details: human; cited from earlier work
[7] = biological target: 5-HT7 receptor (Rattus norvegicus, UniProt P32305); details: cited from earlier work
5-HT7 receptor, sequence (P32305 whole entry): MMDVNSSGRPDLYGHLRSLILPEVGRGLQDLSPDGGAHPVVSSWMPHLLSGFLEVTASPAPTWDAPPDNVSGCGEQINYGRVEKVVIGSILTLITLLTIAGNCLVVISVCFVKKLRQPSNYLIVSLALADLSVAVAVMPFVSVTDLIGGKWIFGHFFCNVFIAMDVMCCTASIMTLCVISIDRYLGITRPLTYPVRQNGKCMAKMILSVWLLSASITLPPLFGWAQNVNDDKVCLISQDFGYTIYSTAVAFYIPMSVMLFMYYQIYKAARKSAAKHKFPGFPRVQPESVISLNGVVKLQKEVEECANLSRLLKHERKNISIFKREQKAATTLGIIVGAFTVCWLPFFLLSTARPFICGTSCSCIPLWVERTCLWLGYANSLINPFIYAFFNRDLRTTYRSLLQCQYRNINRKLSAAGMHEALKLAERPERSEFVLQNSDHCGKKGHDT

[8] = biological target: 5-HT6 receptor (Rattus norvegicus, UniProt P31388); details: cited from earlier work
5-HT6 receptor (Rattus norvegicus, UniProt P31388), sequence (P31388 whole entry): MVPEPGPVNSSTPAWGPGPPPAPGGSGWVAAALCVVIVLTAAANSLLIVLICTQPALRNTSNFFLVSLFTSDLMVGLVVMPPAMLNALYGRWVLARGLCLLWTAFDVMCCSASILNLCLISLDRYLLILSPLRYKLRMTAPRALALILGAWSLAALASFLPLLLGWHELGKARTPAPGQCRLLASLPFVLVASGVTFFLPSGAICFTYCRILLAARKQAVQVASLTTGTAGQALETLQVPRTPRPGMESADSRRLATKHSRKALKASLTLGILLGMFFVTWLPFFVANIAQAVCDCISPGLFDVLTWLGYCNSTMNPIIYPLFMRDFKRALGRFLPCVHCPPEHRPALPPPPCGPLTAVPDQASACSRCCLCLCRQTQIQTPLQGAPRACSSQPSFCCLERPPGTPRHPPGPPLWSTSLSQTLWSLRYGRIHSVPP

[9] = system: 5-HT2C/D2; assay: 5-HT2C/D2 receptor affinity ratio; type: binding, human; details: Table 2; affinity ratio from data of Table 1
[10] = system: H1/D2; assay: H1/D2 receptor affinity ratio; type: binding, human; details: Table 2; affinity ratio from data of Table 1
[11] = biological target: D3 dopamine receptor (Homo sapiens, UniProt P35462); details: cited from earlier work
D3 dopamine receptor, sequence (P35462 whole entry): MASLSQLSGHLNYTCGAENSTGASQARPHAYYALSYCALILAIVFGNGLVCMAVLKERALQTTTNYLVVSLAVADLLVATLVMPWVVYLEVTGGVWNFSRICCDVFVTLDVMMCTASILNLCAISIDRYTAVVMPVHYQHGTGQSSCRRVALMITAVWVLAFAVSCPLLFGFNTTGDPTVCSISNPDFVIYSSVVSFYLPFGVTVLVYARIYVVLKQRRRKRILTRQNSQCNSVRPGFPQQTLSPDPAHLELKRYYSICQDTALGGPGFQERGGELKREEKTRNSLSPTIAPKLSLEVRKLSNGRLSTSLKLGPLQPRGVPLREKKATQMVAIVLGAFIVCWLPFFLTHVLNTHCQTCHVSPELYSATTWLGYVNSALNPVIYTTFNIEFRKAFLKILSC

[12] = biological target: H1 histamine receptor (Homo sapiens, UniProt P35367); details: cited from earlier work
[13] = biological target: 5-HT3 receptor (Homo sapiens, UniProt P46098); details: cited from earlier work
5-HT3 receptor, sequence (P46098 24-478): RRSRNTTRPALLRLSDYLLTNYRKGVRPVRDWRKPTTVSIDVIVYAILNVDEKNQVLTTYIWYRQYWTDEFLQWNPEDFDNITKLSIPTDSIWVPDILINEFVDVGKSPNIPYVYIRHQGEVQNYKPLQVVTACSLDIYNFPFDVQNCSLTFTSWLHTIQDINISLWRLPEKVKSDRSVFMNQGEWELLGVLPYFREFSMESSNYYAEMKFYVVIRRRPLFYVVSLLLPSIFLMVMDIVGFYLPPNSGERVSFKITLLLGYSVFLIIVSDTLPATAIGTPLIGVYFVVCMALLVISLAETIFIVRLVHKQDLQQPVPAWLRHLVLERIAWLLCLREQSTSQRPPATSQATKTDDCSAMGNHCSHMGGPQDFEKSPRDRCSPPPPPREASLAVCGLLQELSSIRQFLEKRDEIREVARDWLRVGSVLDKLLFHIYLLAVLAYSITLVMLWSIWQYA

[14] = system: 5-HT2A/D2; assay: 5-HT2A/D2 receptor affinity ratio; type: binding, human; details: Table 2; affinity ratio from data of Table 1
[15] = biological target: D1 dopamine receptor (Homo sapiens, UniProt P21728); details: cited from earlier work
D1 dopamine receptor, sequence (P21728 whole entry): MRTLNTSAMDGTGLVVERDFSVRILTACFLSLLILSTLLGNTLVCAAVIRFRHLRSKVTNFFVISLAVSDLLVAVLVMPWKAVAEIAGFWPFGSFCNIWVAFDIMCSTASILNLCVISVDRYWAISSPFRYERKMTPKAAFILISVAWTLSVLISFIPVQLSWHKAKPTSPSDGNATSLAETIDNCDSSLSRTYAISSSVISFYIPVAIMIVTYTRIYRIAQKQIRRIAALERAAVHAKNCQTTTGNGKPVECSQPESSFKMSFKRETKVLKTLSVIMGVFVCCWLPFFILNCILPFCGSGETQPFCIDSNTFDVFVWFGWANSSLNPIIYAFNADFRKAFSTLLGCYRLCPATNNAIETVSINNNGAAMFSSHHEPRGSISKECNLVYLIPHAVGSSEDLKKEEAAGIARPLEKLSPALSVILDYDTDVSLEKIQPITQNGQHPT

[16] = biological target: 5-HT1A receptor (Homo sapiens, UniProt P08908); details: cited from earlier work
5-HT1A receptor (Homo sapiens, UniProt P08908), sequence (P08908 whole entry): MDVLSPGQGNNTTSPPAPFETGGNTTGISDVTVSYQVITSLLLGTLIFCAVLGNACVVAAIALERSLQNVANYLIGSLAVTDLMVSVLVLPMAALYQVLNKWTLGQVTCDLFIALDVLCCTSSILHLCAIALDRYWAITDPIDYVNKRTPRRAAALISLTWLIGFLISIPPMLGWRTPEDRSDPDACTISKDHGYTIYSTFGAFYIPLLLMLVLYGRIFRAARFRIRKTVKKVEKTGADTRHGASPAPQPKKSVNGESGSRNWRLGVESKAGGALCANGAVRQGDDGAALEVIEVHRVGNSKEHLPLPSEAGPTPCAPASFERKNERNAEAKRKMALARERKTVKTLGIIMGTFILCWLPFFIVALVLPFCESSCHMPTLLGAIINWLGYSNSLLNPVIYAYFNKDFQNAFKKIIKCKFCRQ

[17] = biological target: D2-S (short form of D2 receptor) (Homo sapiens, UniProt P14416); details: cited from earlier work
D2-S (short form of D2 receptor), sequence (P14416 1-414 isoform P14416-2): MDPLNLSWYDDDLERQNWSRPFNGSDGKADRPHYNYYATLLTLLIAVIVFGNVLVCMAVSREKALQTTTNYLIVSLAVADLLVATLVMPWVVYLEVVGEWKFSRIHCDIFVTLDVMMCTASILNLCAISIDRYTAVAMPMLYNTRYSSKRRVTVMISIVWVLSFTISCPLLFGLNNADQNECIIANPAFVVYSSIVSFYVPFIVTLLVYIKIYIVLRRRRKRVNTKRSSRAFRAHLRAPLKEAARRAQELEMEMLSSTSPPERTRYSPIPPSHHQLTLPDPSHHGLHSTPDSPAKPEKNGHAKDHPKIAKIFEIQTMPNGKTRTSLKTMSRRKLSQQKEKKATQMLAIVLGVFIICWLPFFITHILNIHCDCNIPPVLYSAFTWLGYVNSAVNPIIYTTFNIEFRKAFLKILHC

[18] = system: 5-HT2C/5-HT2A; assay: 5-HT2C/5-HT2A receptor affinity ratio; type: binding, human; details: Table 2; affinity ratio from data of Table 1
[19] = biological target: α1-adrenoceptor; details: human; cited from earlier work
[20] = biological target: mACh, muscarinic acetylcholine receptor; details: human; cited from earlier work
[21] = biological target: T1, 5-HT1A receptor (Rattus norvegicus, UniProt P19327); details: cited from earlier work
T1 sequence (P19327 1-422): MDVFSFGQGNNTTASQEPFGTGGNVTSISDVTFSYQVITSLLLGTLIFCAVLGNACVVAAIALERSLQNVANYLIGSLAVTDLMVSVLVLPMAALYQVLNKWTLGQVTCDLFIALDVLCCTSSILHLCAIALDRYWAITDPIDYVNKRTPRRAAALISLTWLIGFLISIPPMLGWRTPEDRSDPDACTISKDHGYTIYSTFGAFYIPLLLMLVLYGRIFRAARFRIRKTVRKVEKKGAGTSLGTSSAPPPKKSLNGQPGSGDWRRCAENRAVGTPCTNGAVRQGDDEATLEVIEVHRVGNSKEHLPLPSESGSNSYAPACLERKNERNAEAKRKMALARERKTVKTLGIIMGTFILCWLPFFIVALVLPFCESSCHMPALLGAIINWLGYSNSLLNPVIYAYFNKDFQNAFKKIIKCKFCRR

[22] = biological target: sigma, σ receptor; details: rat; cited from earlier work
[23] = biological target: T2, 5-HT2C receptor (Homo sapiens, UniProt P28335); details: cited from earlier work
T2 sequence (P28335 33-458): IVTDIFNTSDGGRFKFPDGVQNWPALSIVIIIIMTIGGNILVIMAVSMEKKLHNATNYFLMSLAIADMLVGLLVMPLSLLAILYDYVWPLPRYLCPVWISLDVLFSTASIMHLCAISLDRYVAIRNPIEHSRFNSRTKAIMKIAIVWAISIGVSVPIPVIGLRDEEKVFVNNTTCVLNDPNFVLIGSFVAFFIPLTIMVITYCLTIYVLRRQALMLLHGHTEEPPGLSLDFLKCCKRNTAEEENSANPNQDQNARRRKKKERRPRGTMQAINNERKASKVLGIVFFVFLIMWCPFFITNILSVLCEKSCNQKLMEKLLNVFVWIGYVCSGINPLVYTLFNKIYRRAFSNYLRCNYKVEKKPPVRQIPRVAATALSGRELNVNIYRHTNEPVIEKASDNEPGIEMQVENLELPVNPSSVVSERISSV

[24] = biological target: mACh, muscarinic acetylcholine receptor; details: rat; cited from earlier work
[25] = biological target: α1-adrenoceptor; details: rat; cited from earlier work
[26] = biological target: α2-adrenoceptor; details: rat; cited from earlier work
[27] = biological target: 5-HT2A receptor (Homo sapiens, UniProt P28223); details: Table 3; expressed as pKi or pKd values; known affinities; cited from earlier work
5-HT2A receptor, sequence (P28223 whole entry): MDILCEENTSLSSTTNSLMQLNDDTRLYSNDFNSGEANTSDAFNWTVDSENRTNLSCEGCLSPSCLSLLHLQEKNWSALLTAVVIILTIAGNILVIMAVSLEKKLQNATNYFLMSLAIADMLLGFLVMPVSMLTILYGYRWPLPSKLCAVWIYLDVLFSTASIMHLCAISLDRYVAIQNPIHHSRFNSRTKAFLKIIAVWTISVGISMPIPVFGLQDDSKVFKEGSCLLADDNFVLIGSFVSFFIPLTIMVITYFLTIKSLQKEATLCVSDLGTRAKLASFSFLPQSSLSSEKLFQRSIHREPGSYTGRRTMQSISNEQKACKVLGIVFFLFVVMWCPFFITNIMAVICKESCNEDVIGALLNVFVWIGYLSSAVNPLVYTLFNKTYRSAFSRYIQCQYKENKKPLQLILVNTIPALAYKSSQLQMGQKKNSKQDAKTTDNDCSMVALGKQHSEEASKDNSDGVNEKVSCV

[28] = biological target: D2 receptor (Homo sapiens, UniProt P14416); details: Table 3; expressed as pKi or pKd values; known affinities; cited from earlier work
D2 receptor, sequence (P14416 whole entry): as the sequence (P14416 whole entry) above

[29] = biological target: T2, 5-HT2C receptor; details: active metabolite in man; U.S. Pat. No. 6,093,747; cited from earlier work
[30] = biological target: T3, D4 dopamine receptor (Rattus norvegicus, UniProt P30729); details: cited from earlier work
T3 sequence (P30729 1-387): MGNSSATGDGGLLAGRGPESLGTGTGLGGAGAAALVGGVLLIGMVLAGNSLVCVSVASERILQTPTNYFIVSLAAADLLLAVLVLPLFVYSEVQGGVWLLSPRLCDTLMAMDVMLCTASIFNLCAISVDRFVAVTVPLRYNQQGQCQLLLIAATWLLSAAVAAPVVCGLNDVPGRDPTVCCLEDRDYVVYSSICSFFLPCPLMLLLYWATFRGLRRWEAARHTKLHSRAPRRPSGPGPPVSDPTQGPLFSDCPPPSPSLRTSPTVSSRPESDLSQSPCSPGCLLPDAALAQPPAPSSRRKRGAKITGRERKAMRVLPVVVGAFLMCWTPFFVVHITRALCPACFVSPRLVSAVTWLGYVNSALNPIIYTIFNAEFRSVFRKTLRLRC

[31] = biological target: T4, D4 dopamine receptor (Homo sapiens, UniProt P21917); details: cited from earlier work
T4 sequence (P21917 1-419): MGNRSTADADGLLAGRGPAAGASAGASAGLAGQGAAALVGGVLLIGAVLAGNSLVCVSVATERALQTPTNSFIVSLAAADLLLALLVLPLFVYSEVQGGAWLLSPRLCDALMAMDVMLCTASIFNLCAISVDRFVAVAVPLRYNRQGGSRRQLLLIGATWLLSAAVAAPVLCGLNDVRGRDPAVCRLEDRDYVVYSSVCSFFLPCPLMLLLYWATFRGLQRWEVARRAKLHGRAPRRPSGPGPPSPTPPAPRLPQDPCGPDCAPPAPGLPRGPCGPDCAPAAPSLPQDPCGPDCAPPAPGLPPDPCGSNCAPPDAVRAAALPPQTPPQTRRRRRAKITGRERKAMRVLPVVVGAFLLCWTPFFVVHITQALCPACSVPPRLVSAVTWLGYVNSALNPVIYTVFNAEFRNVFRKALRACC

[32] = biological target: 5-HT2C receptor (Rattus norvegicus, UniProt P08909); details: cited from earlier work
5-HT2C receptor (Rattus norvegicus, UniProt P08909), sequence (P08909 33-460): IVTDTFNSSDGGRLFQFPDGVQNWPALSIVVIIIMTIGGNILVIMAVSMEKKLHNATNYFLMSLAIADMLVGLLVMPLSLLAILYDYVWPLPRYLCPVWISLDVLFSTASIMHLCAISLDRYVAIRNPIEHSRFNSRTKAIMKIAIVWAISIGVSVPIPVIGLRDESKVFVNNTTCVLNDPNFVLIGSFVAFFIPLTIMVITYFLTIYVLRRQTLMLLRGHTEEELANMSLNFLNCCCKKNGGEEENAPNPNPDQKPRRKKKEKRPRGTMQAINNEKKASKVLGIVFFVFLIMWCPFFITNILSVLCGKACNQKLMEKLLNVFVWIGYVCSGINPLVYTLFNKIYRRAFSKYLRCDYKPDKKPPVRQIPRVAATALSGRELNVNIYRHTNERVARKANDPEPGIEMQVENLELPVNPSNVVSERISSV

[33] = set-up: key: 1-high; 2-medium; 3-low probability; details: Table 4A; grading of probability from literature reports; cited from earlier work
[34] = set-up: key: 1-high; 2-medium; 3-low probability; details: Table 4A; grading of probability from literature reports; cited from earlier work; remark: listed apart in the source
[35] = Table 4A; grading of probability from literature reports; cited from earlier work
[36] = set-up: key to Weight Gain: 1-high; 2-medium; 3-low probability; details: cited from earlier work; for Weight Gain: Table 4A, grading of probability from literature reports
[37] = set-up: key: 1-high; 2-medium; 3-low probability; details: Table 4A; grading of probability from literature reports; cited from earlier work; remark: listed apart in the source
[38] = biological target: sigma, σ receptor; details: guinea-pig; cited from earlier work
[39] = biological target: 5-HT6 receptor (Homo sapiens, UniProt P50406); details: cited from earlier work
5-HT6 receptor (Homo sapiens, UniProt P50406), sequence (P50406 whole entry): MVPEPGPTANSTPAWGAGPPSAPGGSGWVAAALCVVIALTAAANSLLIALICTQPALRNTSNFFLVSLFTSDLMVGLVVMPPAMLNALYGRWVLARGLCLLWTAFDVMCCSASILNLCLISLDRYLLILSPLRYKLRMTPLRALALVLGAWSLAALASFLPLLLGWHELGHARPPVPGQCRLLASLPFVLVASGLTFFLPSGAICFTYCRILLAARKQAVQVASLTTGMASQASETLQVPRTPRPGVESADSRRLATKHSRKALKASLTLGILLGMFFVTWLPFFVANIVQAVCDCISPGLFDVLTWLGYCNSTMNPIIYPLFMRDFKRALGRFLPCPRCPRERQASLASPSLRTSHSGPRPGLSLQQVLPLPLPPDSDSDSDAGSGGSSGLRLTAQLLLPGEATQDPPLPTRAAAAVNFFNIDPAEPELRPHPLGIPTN

[40] = Table 2, sum of affinity ratios from data of Table 1

Structure (SMILES): CC(C)n1cc2c3c(cccc31)[C@H]1C[C@@H](C(=O)NC3CCCCC3)CN(C)[C@@H]1C2 [Amesergide, N-cyclohexyl-1-isopropyl-6-methyl-ergoline-8-carboxamide]
- effect on 5HT2A/2C mediated elevations of prolactin levels induced by D-fenfluramine [1]: block 5HT2A/2C mediated elevations of prolactin levels
- day of maximum values of parent compounds or metabolites (4-hydroxy and desisopropyl species) [2]: 35 days
- day of minimum values of parent compounds or metabolites [2]: 365 days

Structure (SMILES): CCNC(=O)N1CCN(CCCC(c2ccc(F)cc2)c2ccc(F)cc2)CC1 [Amperozide]
- D2-L affinity value (−logKi) [3]: 6.4^3
- (2C/2A) + (2C/D2) [4, 40]: 1.67
- α2 affinity value (−logKi) [5]: 5.5^19
- sigma affinity value (−logKi) [6]: 6.3^19
- 5-HT7 affinity value (−logKi) [7]: 6.3^2
- 5-HT6 affinity value (−logKi) [8]: 7.2^2
- 5-HT2C/D2 (2C/D2) [9]: 0.92
- H1/D2 [10]: 1.08
- D3 affinity value (−logKi) [11]: 6.6^3
- H1 affinity value (−logKi) [12]: 6.9^19
- 5-HT3 affinity value (−logKi) [13]: <5^19
- 5-HT2A/D2 [14]: 1.23
- D1 affinity value (−logKi) [15]: 5.1^19
- 5-HT1A affinity value (−logKi) [16]: 5.9^19
- D2-S affinity value (−logKi) [17]: 6.5^3
- 5-HT2C/5-HT2A (2C/2A) [18]: 0.76
- α1 affinity value (−logKi) [19]: 6.2^19
- mACh affinity value (−logKi) [20]: 6.3^19

Structure (SMILES): COc1cc(C(C)=O)ccc1OCCCN1CCC(c2noc3cc(F)ccc23)CC1 [Iloperidone]
- (2C/2A) + (2C/D2) [4, 40]: 1.79
- 5-HT7 affinity value (−logKi) [7]: 7.7^10
- 5-HT6 affinity value (−logKi) [8]: 7.4^10
- 5-HT1A affinity value (−logKi) [21]: 6.8^18
- sigma affinity value (−logKi) [22]: 7.5^17
- D3 affinity value (−logKi) [11]: 8.1^10
- 5-HT2C affinity value (−logKi) [23]: 7.4^10
- mACh affinity value (−logKi) [24]: <5^17
- D1 affinity value (−logKi) [15]: 6.7^10
- α1 affinity value (−logKi) [25]: 9.6^17
- α2 affinity value (−logKi) [26]: 7.5^17

Structure (SMILES): CNCCO[C@]1(c2ccccc2)C[C@H]2CC[C@]1(C)C2(C)C [N-Desmethyl-deramciclane, (1R,2S,4R)-(−)-2-phenyl-2-(methylaminoethoxy)-1,7,7-trimethyl-bicyclo[2.2.1]heptane]
- Formula I Affinity Ratio ([4]; Table 3, calculated from known 5-HT2C/5-HT2A/D2 affinities): 2.20
- 5-HT2A Affinity [27]: 7
- D2 Affinity [28]: 7
- 5-HT2C receptor antagonism compared with deramciclane [29]: even more pronounced 5-HT2C receptor antagonism

Structure (SMILES): CN1CC2c3ccccc3Oc3ccc(Cl)cc3C2C1 (centres unmarked) [ORG-5222]
- (2C/2A) + (2C/D2) [4, 40]: 2.15
- 5-HT2C/D2 (2C/D2) [9]: 1.13
- H1/D2 [10]: 1.02
- 5-HT2A/D2 [14]: 1.10
- 5-HT2C/5-HT2A (2C/2A) [18]: 1.02

Structure (SMILES): O=c1[nH]c2ccccc2n1C1CCN(CCCC(c2ccc(F)cc2)c2ccc(F)cc2)CC1 [Pimozide]
- 5-HT6 affinity value (−logKi) [8]: 7.2^2
- D4 affinity value (−logKi) [30]: 7.5^4
- D4 affinity value (−logKi) [31]: 7.4^12
- 5-HT2C affinity value (−logKi) [32]: <5^1

Structure (SMILES): Cc1nc2n(c(=O)c1CCN1CCC(c3noc4cc(F)ccc34)CC1)CCCC2 [Risperidone]
- Increases prolactin levels [33]: 1
- Improvement negative symptoms [34]: 3
- Improvement cognitive deficits [35]: 2-3
- Weight Gain [36]: 2-3
- Extra-pyramidal side effects [37]: 1

Structure (SMILES): OCCOCCN1CCN(C2=Nc3ccccc3Sc3ccccc32)CC1 [Seroquel]
- Increases prolactin levels [33]: 3
- Improvement negative symptoms [34]: 3
- Improvement cognitive deficits [35]: 2-3
- Weight Gain [36]: 2
- weight gain (in words) ([36]; text b109, literature reports): do cause weight gain
- Extra-pyramidal side effects [37]: 2

Structure (SMILES): O=C1NCCN1CCN1CCC(c2cn(-c3ccc(F)cc3)c3ccc(Cl)cc23)CC1 [Sertindole]
- (2C/2A) + (2C/D2) ([4]; Table 4B): 1.91
- α2 affinity value (−logKi) [5]: 6.5^19
- sigma affinity value (−logKi) [38]: 6.9^6
- Increases prolactin levels [33]: 3
- 5-HT1A affinity value (−logKi) [21]: 6.6^6
- Improvement negative symptoms [34]: 2
- Weight Gain [36]: 2-3
- D1 affinity value (−logKi) [15]: 6.89^19
- Extra-pyramidal side effects [37]: 3
- α1 affinity value (−logKi) [19]: 8.7^19
- mACh affinity value (−logKi) [20]: <5.6^19
- 5-HT6 affinity value (−logKi) [39]: 9.13^19
